Measured values taken from patent EP0184322A1, “Benzimidazoles” (SMITH KLINE & FRENCH LABORATORIES LIMITED, priority 1984, dated 1986).

These compounds were tested on histamine stimulated gastric acid secretion (assay: Rat lumen perfused stomach (modified Ghosh and Schild procedure)). Conditions: i.d. (intraduodenal) administration.
Assay type: in vivo
From the text: Using a modification of the procedure described by Ghosh and Schild (Br. J. Pharmacology, 13, 54, 1958), ED . values after either intraduodenal (i.d) or intravenous (i.v) administration were obtained as follows: […]

| SMILES | ED50 |
| --- | --- |
| COc1ccc2[nH]c([S+]([O-])Cc3ncc(C)c(N4CCOCC4)c3Cl)nc2c1 (stereo not drawn) [Example 6, 2-(4-morpholino-3-chloro-5-methyl-2-pyridylmethylsulphinyl)--5-methoxy-(1H)-benzimidazole] | 1.94 µmol/kg |
| COc1ccc2[nH]c([S+]([O-])Cc3ncc(C)c(N(C)C)c3Cl)nc2c1 (stereo not drawn) [Example 16, 2-(4-dimethylamino-3-chloro-5-methyl-2-pyridylmethylsulphi-nyl)-5-methoxy-(1H)-benzimidazole] | 1.46 µmol/kg |
| COc1ccc2[nH]c([S+]([O-])Cc3ncc(Br)c(N4CCCCC4)c3C)nc2c1 (stereo not drawn) [Example 22, 2-(4-piperidino-5-bromo-3-methyl-2-pyridylmethylsulphinyl)--5-methoxy-(1 H)-benzimidazole] | 4.55 µmol/kg |
| COc1ccc2[nH]c([S+]([O-])Cc3ncc(C)c(N4CCCCC4)c3Cl)nc2c1 (stereo not drawn) [Example 8, 2-(4-piperidino-3-chloro-5-methyl-2-pyridylmethylsulphinyl)--5-methoxy-(1H)-benzimidazole] | 2.38 µmol/kg |

Same assay, conditions: iv, i.v. administration

| SMILES | ED50 |
| --- | --- |
| COc1ccc2[nH]c([S+]([O-])Cc3nccc(N4CCOCC4)c3Cl)nc2c1 (stereo not drawn) [Example 4, 2-(4-morpholino-3-chloro-2-pyridylmethyl-sulphinyl)-5-methoxy-(1 H)-benzimidazole] | 1.17 µmol/kg |
| COc1ccc2[nH]c([S+]([O-])Cc3nccc(N4CCCCC4)c3Br)nc2c1 (stereo not drawn) [Example 20, 2-(4-piperidino-3-bromo-2-pyridylmethylsulphinyl) - 5-methoxy-(1H)-benzimidazole] | 0.86 µmol/kg |
| COc1ccc2[nH]c([S+]([O-])Cc3cc(N)c(Br)cn3)nc2c1 (stereo not drawn) [Example 2, 2-(4-amino-5-bromo-2-pyridylmethylsulphinyl)-5-methoxy-(1-H)-benzimidazole] | 1.46 µmol/kg |
| COc1ccc2[nH]c([S+]([O-])Cc3cc(N4CCCCC4)c(Br)cn3)nc2c1 (stereo not drawn) [Example 18, 2-(4-piperidino-5-bromo-2-pyridylmethylsulphinyl) - 5-methoxy-(1 H)-benzimidazole] | 0.85 µmol/kg |
| COc1ccc2[nH]c([S+]([O-])Cc3ncc(C)c(N4CCCC4)c3Cl)nc2c1 (stereo not drawn) [Example 14, 2-(4-pyrrolidino-3-chloro-5-methyl-2-pyridylmethylsulphinyl)-5-methoxy-(1 H)-benzimidazole] | 0.82 µmol/kg |
